Data published in ChEMBL document CHEMBL3992490, “Synthesis, spectroscopic properties and photodynamic activity of two cationic BODIPY derivatives with application in the photoinactivation of microorganisms” (Eur J Med Chem, 2017).
Calls of active or inactive are those of the source. The rule behind the calls is not given here.

How the values were obtained:
[1] = In vitro photodynamic activity in DMF/5% water assessed as singlet oxygen production by measuring photo-oxidation rate of DPBF after irradiation in presence of 10 mM potassium iodide by absorption spectra analysis
[2] = test system: Escherichia coli; assay: Antibacterial activity against Escherichia coli EC7 assessed as reduction in cell survival at 5 uM irradiated with visible light for 15 mins in presence of 10 mM potassium iodide by UV-visible spectroscopic method; type: functional
[3] = test system: Escherichia coli; assay: Dark toxicity against Escherichia coli EC7 assessed as cell viability at 5 uM in presence of 10 mM potassium iodide measured after 30 mins by UV-visible spectroscopic method; conditions: 0.5 h
[4] = In vitro photodynamic activity in DMF/10% water assessed as reactive oxygen species production by measuring photo-oxidation rate of L-tryptophan after irradiation by absorption spectra analysis
[5] = In vitro photodynamic activity in DMF/5% water assessed as reactive oxygen species production by measuring photo-oxidation rate of L-tryptophan after irradiation by absorption spectra analysis
[6] = test system: Candida albicans; assay: Dark toxicity against Candida albicans PC31 assessed as cell viability at 5 uM in presence of 10 mM potassium iodide measured after 30 mins by UV-visible spectroscopic method; conditions: 0.5 h
[7] = In vitro photodynamic activity in DMF assessed as singlet oxygen production by measuring photodegradation rate of DPBF after irradiation by absorption spectra analysis
[8] = In vitro photodynamic activity in DMF/5% water assessed as iodine production at 1 uM under dark condition in presence of 10 mM potassium iodide by UV-visible spectra analysis
[9] = test system: Candida albicans; assay: Anti-fungal activity against Candida albicans PC31 assessed as reduction in cell survival at 5 uM irradiated with visible light for 30 mins in presence of 10 mM potassium iodide by UV-visible spectroscopic method; type: functional
[10] = In vitro photodynamic activity in DMF/5% water assessed as reactive oxygen species production by measuring photo-oxidation rate of L-tryptophan after irradiation in presence of D-mannitol by absorption spectra analysis
[11] = In vitro photodynamic activity in DMF assessed as singlet oxygen production by measuring decrease in DPBF level after irradiation by absorption spectra analysis; conditions: TDE = time-dependent effect
[12] = In vitro photodynamic activity in DMF assessed as reactive oxygen species production by measuring photo-oxidation rate of L-tryptophan after irradiation by absorption spectra analysis
[13] = In vitro photodynamic activity in DMF/5% water assessed as reactive oxygen species production by measuring photo-oxidation rate of L-tryptophan after irradiation in presence of DABCO by absorption spectra analysis
[14] = test system: Escherichia coli; assay: Dark toxicity against Escherichia coli EC7 assessed as cell viability at 5 uM measured after 30 mins by UV-visible spectroscopic method; conditions: 0.5 h
[15] = test system: Candida albicans; assay: Dark toxicity against Candida albicans PC31 assessed as cell viability at 5 uM measured after 30 mins by UV-visible spectroscopic method; conditions: 0.5 h
[16] = test system: Staphylococcus aureus; assay: Dark toxicity against Staphylococcus aureus ATCC 25923 assessed as cell viability at 1 uM in presence of 10 mM potassium iodide measured after 30 mins by UV-visible spectroscopic method; conditions: 0.5 h
[17] = In vitro photodynamic activity in DMF/10% water assessed as reactive oxygen species production by measuring photo-oxidation rate of L-tryptophan after irradiation in presence of 50 mM potassium iodide by absorption spectra analysis
[18] = test system: Escherichia coli; assay: Antibacterial activity against Escherichia coli EC7 assessed as reduction in cell survival at 5 uM irradiated with visible light for 15 mins by UV-visible spectroscopic method; type: functional
[19] = In vitro photodynamic activity in DMF/5% water assessed as iodine production at 1 uM irradiated with visible light for 5 to 30 mins under aerobic condition in presence of 10 mM potassium iodide by UV-visible spectra analysis
[20] = In vitro photodynamic activity in DMF/5% water assessed as singlet oxygen production by measuring photo-oxidation rate of DPBF after irradiation by absorption spectra analysis
[21] = test system: Staphylococcus aureus; assay: Antibacterial activity against Staphylococcus aureus ATCC 25923 assessed as reduction in cell survival at 1 uM irradiated with visible light for 5 mins in presence of 10 mM potassium iodide by UV-visible spectroscopic method; type: functional
[22] = test system: Candida albicans; assay: Anti-fungal activity against Candida albicans PC31 assessed as reduction in cell survival at 5 uM irradiated with visible light for 30 mins by UV-visible spectroscopic method; type: functional
[23] = In vitro photodynamic activity in DMF/5% water assessed as iodine production at 1 uM irradiated with visible light for 5 to 30 mins under argon condition in presence of 10 mM potassium iodide by UV-visible spectra analysis
[24] = Ratio of rate constant for induction of singlet oxygen production in DMF assessed as photodegradation rate of DPBF to rate constant for induction of reactive oxygen species production in DMF assessed as photodegradation rate of L-tryptophan
[25] = test system: Staphylococcus aureus; assay: Dark toxicity against Staphylococcus aureus ATCC 25923 assessed as cell viability at 1 uM measured after 30 mins by UV-visible spectroscopic method; conditions: 0.5 h
[26] = test system: Staphylococcus aureus; assay: Antibacterial activity against Staphylococcus aureus ATCC 25923 assessed as reduction in cell survival at 1 uM irradiated with visible light for 5 mins by UV-visible spectroscopic method; type: functional
[27] = In vitro photodynamic activity in n-heptane/0.1 M AOT/water micelles assessed as singlet oxygen production by measuring photodegradation rate of DPBF after irradiation by absorption spectra analysis
[28] = In vitro photodynamic activity in DMF/5% water assessed as singlet oxygen production by measuring photo-oxidation rate of DPBF after irradiation in presence of 50 mM potassium iodide by absorption spectra analysis

| Structure (SMILES) | K [1] | Activity [2] | Activity [3] | K [4] | K [5] | Activity [6] | K [7] | Activity [8] | Activity [9] | K [10] | Activity [11] | K [12] | K [13] | Activity [14] | Activity [15] | Activity [16] | K [17] | Activity [18] | Activity [19] | K [20] | further results |
| --- | --- | --- | --- | --- | --- | --- | --- | --- | --- | --- | --- | --- | --- | --- | --- | --- | --- | --- | --- | --- | --- |
| C[N+](C)(C)CCCOc1ccc(C2=C3C=CC=[N+]3[B-](F)(F)n3cccc32)cc1 | 2.79 ×10⁻⁵ /s | Active | Non-Toxic | 2.79 ×10⁻⁵ /s | 7.86 ×10⁻⁵ /s | Non-Toxic | 4.15 ×10⁻⁵ /s | inactive | Active | 1.56 ×10⁻⁵ /s | Tde | 3.44 ×10⁻⁴ /s | 3 ×10⁻⁵ /s | Non-Toxic | Non-Toxic | Non-Toxic | 9.55 ×10⁻⁵ /s | 2.5 deltalog10CFU/ml | Active | 5.81 ×10⁻⁵ /s | Activity [21]: Active; Activity [22]: 0.9 deltalog10CFU/ml; Activity [23]: inactive; Ratio [24]: 8.3; Activity [25]: Non-Toxic; Activity [26]: >5 deltalog10CFU/ml; K [27]: 1.25 ×10⁻⁴ /s; K [28]: 0.64 ×10⁻⁵ /s |
| CC1=CC(C)=[N+]2C1=C(c1ccc([N+](C)(C)C)cc1)c1c(C)cc(C)n1[B-]2(F)F | 1.58 ×10⁻⁴ /s | Active | Non-Toxic | 2.13 ×10⁻⁵ /s | 4.75 ×10⁻⁵ /s | Non-Toxic | 9.51 ×10⁻⁵ /s | inactive | Active | 1.41 ×10⁻⁵ /s | Tde | 3.06 ×10⁻⁴ /s | 2.98 ×10⁻⁵ /s | Non-Toxic | Non-Toxic | Non-Toxic | 4.42 ×10⁻⁵ /s | 2.5 deltalog10CFU/ml | Active | 1.8 ×10⁻⁴ /s | Activity [21]: Active; Activity [22]: 3.7 deltalog10CFU/ml; Activity [23]: inactive; Ratio [24]: 3.2; Activity [25]: Non-Toxic; Activity [26]: >5 deltalog10CFU/ml; K [27]: 1.95 ×10⁻⁴ /s; K [28]: 1.02 ×10⁻⁴ /s |
